Data on 4 compounds can be found in patent US20250163051A1, “PYRIMIDO AROMATIC RING COMPOUND AND USE THEREOF IN DRUG” (SUNSHINE LAKE PHARMA CO., LTD., priority 2022, published 2025).

Data set [1] concerns the target T1, CYP3A4 (Homo sapiens, UniProt P08684).
T1 construct: from tissue; host or cells: human liver microsomes
As to the kind of experiment: Inhibition of human liver microsomal CYP3A4. Type of data set: in vitro ADME. The conditions noted are these: human liver microsomes, 10 μM test substance. Here is the method: (§1) Experimental purpose: The inhibitory effects of the test compounds on the major metabolizing enzymes CYP1A2, CYP2C19, CYP2D6 and CYP3A4 in microsomes were evaluated using the human liver microsomal system. Experimental method: The test substance was incubated with a suspension of human liver microsomes containing cytochrome P450 enzymes CYP1A2, CYP2C19, CYP2D6 and CYP3A4 at a concentration of 10 μM in the final incubation system. The known substrates were metabolized by the corresponding single enzymes to generate specific metabolites, and the metabolites were determined by UPLC-MS/MS method. The relative inhibition rate (%) was calculated by the percentage reduction of metabolite production by the test compound and solvent DMSO in the same time period. N is the concentration value of the probe substrate metabolite and it is assumed that the […] with or without inhibitor at 0 min is 0. N+inh is the metabolite concentration in the group with inhibitor, and Nveh is the metabolite concentration in the group without inhibitor. The results of the inhibition test of the compounds of the present invention on human liver microsomal CYP enzymes are shown in Table C.

Another data set concerns the target T2, CYP2C19 (Homo sapiens, UniProt P33261).
T2 construct: from tissue; host or cells: human liver microsomes
Description: Inhibition of human liver microsomal CYP2C19. Type of data set: in vitro ADME. The conditions noted are these: human liver microsomes, 10 μM test substance; read-out: Relative inhibition rate (%) CYP2C19. Here is the method: as §1
On the technique in general: Liver microsomes are vesicles of endoplasmic reticulum, rich in cytochrome P450 enzymes.

The next data set concerns the target T3, hTLR7 (Homo sapiens, UniProt Q9NYK1).
T3 construct: expressed in transfected cells; host or cells: HEK-Blue hTLR7 cells
T3 sequence (Q9NYK1 27-1049): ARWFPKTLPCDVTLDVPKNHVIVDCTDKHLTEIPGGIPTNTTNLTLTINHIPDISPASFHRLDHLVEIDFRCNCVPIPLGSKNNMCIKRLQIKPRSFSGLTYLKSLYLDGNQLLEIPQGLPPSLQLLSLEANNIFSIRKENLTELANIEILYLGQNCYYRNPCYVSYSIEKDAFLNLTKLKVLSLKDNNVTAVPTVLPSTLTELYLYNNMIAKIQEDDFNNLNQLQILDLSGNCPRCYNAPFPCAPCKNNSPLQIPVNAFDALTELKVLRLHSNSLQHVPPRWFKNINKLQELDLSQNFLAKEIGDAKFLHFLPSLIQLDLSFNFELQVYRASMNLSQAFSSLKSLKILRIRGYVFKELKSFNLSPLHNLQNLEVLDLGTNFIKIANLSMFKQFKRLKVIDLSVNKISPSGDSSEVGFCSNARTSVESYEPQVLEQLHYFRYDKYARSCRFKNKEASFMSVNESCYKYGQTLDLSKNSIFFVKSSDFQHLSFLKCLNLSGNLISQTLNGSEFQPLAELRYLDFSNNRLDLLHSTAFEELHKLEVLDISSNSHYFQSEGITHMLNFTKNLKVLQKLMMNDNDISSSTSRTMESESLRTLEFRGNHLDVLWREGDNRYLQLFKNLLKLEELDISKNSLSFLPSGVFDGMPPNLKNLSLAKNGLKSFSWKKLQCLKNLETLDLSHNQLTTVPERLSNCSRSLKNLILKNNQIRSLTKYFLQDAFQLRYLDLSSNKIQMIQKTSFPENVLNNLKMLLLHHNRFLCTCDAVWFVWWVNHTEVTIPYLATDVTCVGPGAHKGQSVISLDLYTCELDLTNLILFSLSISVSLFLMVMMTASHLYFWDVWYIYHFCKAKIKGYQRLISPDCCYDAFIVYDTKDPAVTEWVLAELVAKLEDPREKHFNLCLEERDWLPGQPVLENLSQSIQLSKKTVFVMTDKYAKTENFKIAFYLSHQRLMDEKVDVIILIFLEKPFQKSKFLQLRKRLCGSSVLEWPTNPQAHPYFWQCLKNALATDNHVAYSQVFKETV
As to the kind of experiment: Agonistic activity on human TLR7 in HEK-Blue hTLR7 cells (QUANTI-Blue). It is filed as cell-based. Particulars: 24 h incubation, OD650, read-out: hTLR 7 EC50.

Data set [2] in a line: Cell toxicity (Celltiter-Glo) in HEK-Blue hTLR8 cells. The conditions noted are these: human. A general note: ATP-based viability assays read luminescence as a measure of living cells.
Description: (§5) Purpose: HEK-Blue™ hTLR7 and HEK-Blue™ hTLR8 cells were used to detect the agonist and cytotoxic activities of compounds against hTLR7 and hTLR8.
(§6) The experimental steps were as shown below: • 1) Preparation of compound: The compound was prepared into a 20 mM stock solution with DMSO, and then the stock solution was diluted 3-fold in a gradient and added to a 96-well plate, for a total of 10 concentrations, with duplicate wells for each concentration. For negative control wells, 0.5 μL DMSO was added to each well. The final DMSO concentration was 0.5%. • 2) HEK-Blue™ hTLR7 or HEK-Blue™ hTLR8 cells were suspended in culture medium and then seeded into 96-well plates containing compounds at a cell count of 50,000 per well. The compounds and cells were incubated for 24 h at 37° C., 5% Co2. • 3) QUANTI-Blue was used for the detection solution: to a mixture of 1 mL of QB reagent and 1 mL of QB buffer was added 98 mL of sterile water, the mixture was mixed and dissolved, and then placed at room temperature for 10 min. • 4) Activity test of the compound: 20 μL of the culture supernatant in step 2) was added to each well of a 96-well plate containing 180 μL of QUANTI-Blue detection solution. After incubation at 37° C. for 1 h, the absorbance at 650 nm (OD650) was detected using a multifunctional microplate reader Flextation III. • 5) Detection of cell activity: The chemiluminescent signal (RLU) was detected using the multifunctional microplate reader Flextation III according to the instructions of Celltiter-Glo. • 6) Data analysis
Detection of cell activity: The calculation formula for cell activity % is as follows.
The cell activity % values were analyzed using GraphPad Prism software, and the compound dose-effect curves were fitted to calculate the CC50 values of the compounds.
Cell activity %=RLU compound/RLU DMSO Control*100%
The next data set deals with T4, CYP1A2 (Homo sapiens, UniProt P05177).
T4 construct: from tissue; host or cells: human liver microsomes
T4 sequence (P05177 1-516): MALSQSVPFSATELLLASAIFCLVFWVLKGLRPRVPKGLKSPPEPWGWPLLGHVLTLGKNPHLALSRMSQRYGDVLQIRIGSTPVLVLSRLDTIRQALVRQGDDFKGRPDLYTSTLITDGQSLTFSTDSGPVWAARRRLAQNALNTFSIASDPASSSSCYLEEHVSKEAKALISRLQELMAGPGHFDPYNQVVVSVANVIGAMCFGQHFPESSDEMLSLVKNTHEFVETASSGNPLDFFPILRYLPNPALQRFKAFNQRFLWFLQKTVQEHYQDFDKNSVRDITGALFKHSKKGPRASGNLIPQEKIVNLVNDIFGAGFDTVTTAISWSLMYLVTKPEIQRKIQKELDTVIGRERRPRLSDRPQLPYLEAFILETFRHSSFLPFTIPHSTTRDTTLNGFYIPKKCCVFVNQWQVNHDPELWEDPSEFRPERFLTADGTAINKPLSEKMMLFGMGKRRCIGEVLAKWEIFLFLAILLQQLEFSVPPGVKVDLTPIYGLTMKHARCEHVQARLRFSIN
Description: Inhibition of human liver microsomal CYP1A2. It is filed as in vitro ADME. The conditions noted are these: human liver microsomes, 10 μM test substance; read-out: Relative inhibition rate (%) CYP1A2. Here is the method:
as §1

For the next data set, the system named is CYP2B6. Description: Induction of CYP2B6 in frozen human hepatocytes. Type of data set: in vitro ADME. Particulars: 72 h induction, concentration and readout not stated; for CYP2B6 Induction percentage relative to positive control (%): positive control Phenobarbital. Here is the method:
(§2) Experimental purpose: Using frozen human hepatocytes as the test system, the induction effects of the test substances on CYP1A2, CYP2B6 and CYP3A4 were evaluated from two aspects of enzyme activity and mRNA level.
(§3) Experimental method: 24 hours after cell plating, induction was started by adding medium containing the test compound (test concentrations were 10, 1, and 0.1 μM), and fresh drug-containing medium was replaced every 24 hours. After 72 hours of induction, the medium was replaced with medium containing CYP1A2, CYP2B6, and CYP3A4 specific substrates for 30 minutes of incubation. 100 μL was taken for treatment, and the labeled metabolites of the substrates were detected to evaluate the enzyme activity level. Finally, the cells were lysed and reverse transcribed, and the expression levels of CYP1A2, CYP2B6 and CYP3A4 genes in the cells were evaluated by real-time quantitative PCR.
(§4) The induction fold of the test compound compared with the blank control and the induction percentage of the test compound compared with the positive control were used as the basis for evaluating the induction potential of the test compound. Among them, the positive control for CYP1A2 is Omeprazole; the positive control for CYP2B6 is Phenobarbital; the positive control for CYP3A4 is Rifampicin.

Data set [3] has as its system CYP3A4. Description: Induction of CYP3A4 in frozen human hepatocytes. Type of data set: in vitro ADME. The conditions noted are these: 72 h induction, concentration and readout not stated; for CYP3A4 Induction percentage relative to positive control (%): positive control Rifampicin. The method, then:
as §2, §3, §4

The mark [4] stands for this setting: probe Midazolam, substrate Midazolam, read-out: Relative inhibition rate (%) CYP3A4 (Midazolam).
Setting [5] is: probe Testosterone, substrate Testosterone, read-out: Relative inhibition rate (%) CYP3A4 (Testosterone).

The structures appear in SMILES notation. Where two headings read alike, the source gives them in different places.

T1 sequence (P08684 whole entry): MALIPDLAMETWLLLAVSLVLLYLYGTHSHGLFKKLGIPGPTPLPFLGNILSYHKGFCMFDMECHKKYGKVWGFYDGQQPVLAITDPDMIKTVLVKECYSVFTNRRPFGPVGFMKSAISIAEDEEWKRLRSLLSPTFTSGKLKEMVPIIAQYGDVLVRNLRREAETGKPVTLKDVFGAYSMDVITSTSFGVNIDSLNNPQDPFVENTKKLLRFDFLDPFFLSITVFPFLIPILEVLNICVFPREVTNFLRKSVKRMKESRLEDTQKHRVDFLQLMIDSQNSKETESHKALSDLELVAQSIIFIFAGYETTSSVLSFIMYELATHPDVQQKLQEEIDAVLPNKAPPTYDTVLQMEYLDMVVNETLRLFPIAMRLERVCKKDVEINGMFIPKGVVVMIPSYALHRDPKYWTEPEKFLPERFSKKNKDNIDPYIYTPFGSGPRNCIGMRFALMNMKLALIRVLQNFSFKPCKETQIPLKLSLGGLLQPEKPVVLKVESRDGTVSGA
T2 sequence (P33261 whole entry): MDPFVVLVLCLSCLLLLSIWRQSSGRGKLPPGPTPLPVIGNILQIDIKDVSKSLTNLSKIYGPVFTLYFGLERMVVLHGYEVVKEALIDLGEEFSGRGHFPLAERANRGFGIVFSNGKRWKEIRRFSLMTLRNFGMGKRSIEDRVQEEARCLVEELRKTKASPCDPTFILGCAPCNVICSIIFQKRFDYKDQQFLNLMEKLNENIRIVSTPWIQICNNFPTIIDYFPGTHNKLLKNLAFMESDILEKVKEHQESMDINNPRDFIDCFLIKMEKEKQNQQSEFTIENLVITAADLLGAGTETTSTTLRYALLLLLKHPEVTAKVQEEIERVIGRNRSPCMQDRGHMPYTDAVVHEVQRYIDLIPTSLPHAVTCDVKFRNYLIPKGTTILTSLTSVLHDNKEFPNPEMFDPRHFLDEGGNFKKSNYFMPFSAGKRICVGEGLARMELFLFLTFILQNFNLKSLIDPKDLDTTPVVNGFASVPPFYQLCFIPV
Description for hTLR7: as §5, §6
Activity of compounds: OD650 values were analyzed using GraphPad Prism software, and the compound dose-effect curves were fitted to calculate the EC50 values of the compounds.

For the compound `CCCC[C@](C)(CO)Nc1nc(N)nc2cc(-c3cc(=O)[nH]cc3CN(C)CCOC)cnc12` [Example 21], the inhibition (usually the change of the read-out against control, counted positive when it falls) at 10 µM at CYP3A4 [1] (setting [4]) was 15.3%; at CYP3A4 [1] (setting [5]), 18%; on CYP2C19 it was 10.5%; at CYP1A2, -4.1%. Also, the EC50 (usually the concentration at which the effect is half-maximal) on hTLR7 worked out at 90.3 µM. Further, in data set [2], the 50% cytotoxic concentration (CC50) (as a rule, the concentration at which the toxic effect on the cells reaches its halfway point) at 24 h is above 100 µM. Also, in the data set on CYP2B6, the “CYP2B6 Induction fold relative to blank control” value is 0.5. The “CYP2B6 Induction percentage relative to positive control (%)” value with CYP2B6 was −4.8%. In addition, the “CYP3A4 Induction fold relative to blank control” value with CYP3A4 [3] came to 1.4. The “CYP3A4 Induction percentage relative to positive control (%)” value with CYP3A4 [3] is 1.5%.
For the compound `C=CCCN(C)Cc1c[nH]c(=O)cc1-c1ccc2c(N[C@@](C)(CO)CCCC)nc(N)nc2c1` [Example 35], the inhibition at 10 µM is 23.9% at CYP3A4 [1] (setting [4]), 11.5% at CYP3A4 [1] (setting [5]), 9.7% on CYP2C19 and 2.7% at CYP1A2. Also, on hTLR7, the concentration giving a half-maximal response (EC50) is 68.6 µM. Besides, in data set [2], the CC50 at 24 h is above 100 µM. Also, the “CYP2B6 Induction fold relative to blank control” value in the data set on CYP2B6 is reported as 0.4. The “CYP2B6 Induction percentage relative to positive control (%)” value in the data set on CYP2B6 is −5.6%. In addition, the “CYP3A4 Induction fold relative to blank control” value with CYP3A4 [3] came to 1.3. Further, in the data set with CYP3A4 [3], the “CYP3A4 Induction percentage relative to positive control (%)” value stood at 0.9%.
Regarding `CCCC[C@](C)(CO)Nc1nc(N)nc2cc(-c3cc(=O)n(C)cc3CN3CCCCC3)ccc12` [Example 8], the inhibition at 10 µM is 9.6% at CYP3A4 [1] (setting [4]), 6.3% at CYP3A4 [1] (setting [5]), 9.3% on CYP2C19 and -10.5% at CYP1A2. In addition, the EC50 on hTLR7 was above 100 µM. Half-maximal cytotoxicity in data set [2] (CC50 at 24 h) was put at 98.3 µM. For the same compound, in the data set on CYP2B6, the “CYP2B6 Induction fold relative to blank control” value is 0.6. In addition, the “CYP2B6 Induction percentage relative to positive control (%)” value with CYP2B6 was −4.1%. Further, the “CYP3A4 Induction fold relative to blank control” value with CYP3A4 [3] is 0.6. Also, in the data set on CYP3A4 [3], the “CYP3A4 Induction percentage relative to positive control (%)” value is −1.5%.
Consider `CCCCN(C)Cc1c[nH]c(=O)cc1-c1cnc2c(N[C@@](C)(CO)CCCC)nc(N)nc2c1` [Example 28, (R)-4-(2-Amino-4-((1-hydroxy-2-methylhexan-2-yl)amino)pyrido[3,2-d]pyrimidin-7-yl)-5-((butyl(methyl)amino)methyl)pyridin-2(1H)-one], for which the inhibition at 10 µM on CYP3A4 [1] (setting [4]) amounted to 31.1%; at CYP3A4 [1] (setting [5]) it was 17.9%; at CYP2C19, 30.5%; at CYP1A2 it was 5.1%. Further, the EC50 on hTLR7 stood at 29.5 µM. In data set [2], this compound gave a CC50 at 24 h above 100 µM. Also, in the data set on CYP2B6, the “CYP2B6 Induction fold relative to blank control” value is recorded as 0.9. For the same compound, the “CYP2B6 Induction percentage relative to positive control (%)” value in the data set on CYP2B6 is recorded as −0.7%. In addition, the “CYP3A4 Induction fold relative to blank control” value in the data set with CYP3A4 [3] stood at 2.0. For the same compound, in the data set on CYP3A4 [3], the “CYP3A4 Induction percentage relative to positive control (%)” value came out at 2.0%.
